Patent publication US20250295606A1, “BIOSOLUBLE POLYMER OR PARTICLE FOR DELIVERY OF AN ACTIVE AGENT AND A METHOD FOR THE PRODUCTION” (Tijani Holding B.V., priority 2021, published 2025)

Tests used:
pig = tested on: pig
Source text: For sublingual (s.l.) treatment it is necessary to anesthetize the animals as to allow the application of the insulin complexes onto the sublingual mucosa, but long-term anesthesia is undesirable as it may affect insulin/glucose metabolism.

[1] = tested on: diabetic Göttingen minipigs; assay: Sublingual SLIM particles vs s.c. insulin, blood glucose in diabetic Göttingen minipigs; format: in vivo; conditions: Minipig 2, different days; SLIM-AF5 15 IU sublingual, RHI 10 IU subcutaneous; 2H30, after first 10 min
Source text: Testing the sublingual application of SLIM particles loaded with insulin in normoglycemic and STZ diabetic […] in a chronic in vivo study.
The purpose of this chronic, large animal in vivo study was to test the effective penetration of insulin containing particles through the sublingual mucosa, compare the effect with the subcutaneously applied human recombinant, measure the blood glucose changes and analyses the plasma insulin levels. Domestic pigs were also included in the study to compare the glucose lowering effect of insulin-loaded particles in the Göttingen minipigs and domestic pigs. […]
In this study, we first recorded the effect of s.c. application of human recombinant insulin as reference compounds and s.c. and s.l. applications of micro-compounds. […] The glucose levels of the pigs were followed and monitored for at least 3 days. […]
Corresponding to Example 20, the efficacy of SLIM particles was compared to subcutaneous injection of commercial recombinant human insulin in the same diabetic Göttingen minipig (Minipig 2) on different days. First day the animal received SLIM-AF5 (AF, 15 IU) particles sublingually and the second day was administered Recombinant Human Insulin (RHI, 10 IU) subcutaneously and the BG levels were monitored for 2H30 and compared (FIG. 22).

[2] = Plasma insulin level in diabetic Göttingen minipigs; format: in vivo; conditions: diabetic Göttingen minipig, subcutaneous injection
Source text: The purpose of this chronic, large animal in vivo study was to test the effective penetration of insulin containing particles through the sublingual mucosa, compare the effect with the subcutaneously applied human recombinant, measure the blood glucose changes and analyses the plasma insulin levels. Domestic pigs were also included in the study to compare the glucose lowering effect of insulin-loaded particles in the Göttingen minipigs and domestic pigs. The test compounds were applied s.l. and s.c. to the pigs being under the anesthetic propofol (Amnesia).
On the first day of acclimatization a central venous catheter was installed (Certofix®Mono B-Braun V430) for each domestic pig and Göttingen minipig. The pigs were fasted overnight before the day of operation, but supplied with water ad libitum. The animals were pre-anesthetized intramuscularly with Calypsol/Xilazine (2/1.8 mL, based on body weight) injections in the stalls to avoid stress, and were transported to the operating room. The anesthesia was maintained using isoflurane inhalation narcosis (2-2.5%) with oxygen. […]. The venous catheters were introduced by aseptic technique into the left external jugular vein. The end of the catheter was pulled subcutaneously to the back part of the head between the ears, and fixed by sutures, in two layers. […]

**Q.** For `CC(C)c1cccc(C(C)C)c1O` [Propofol], which “time until the jaw was relaxed” value (pig; 5 mg/kg, 20 mg/mL i.v.) is on record?
**A.** 60 s

**Q.** What about the “time until the pig was laying down” value (pig; 5 mg/kg, 20 mg/mL i.v.) of the same molecule?
**A.** 30 s

**Q.** And the “blood glucose measurements under anesthesia” value (pig; 20 minutes before, then 5, 10, 15 and 30 minutes after anesthesia)?
**A.** in the normal range

**Q.** With “recombinant human insulin: commercial recombinant human insulin, subcutaneous reference” as the molecule, how does the BG level course [1] read?
**A.** continue to decline linearly with the time but with a slightly different speed and slop

**Q.** And the “maxima of plasma insulin” value ([2]; 2 IU)?
**A.** only one insulin maximum in plasma

**Q.** What about the “maxima of plasma insulin” value ([2]; 10 IU) of the same molecule?
**A.** only one maximum peak of plasma insulin
